Experimental data published in patent publication US20160354427A1, “METHODS FOR INDUCING EPITHELIAL CANCER CELL SENESCENCE” (Institute for Cancer Research d/b/a The Research Institute …, priority 2011, published 2016).

Legend:
Wnt5a mRNA in PEO1 cells = assay: Wnt5a mRNA expression by qRT-PCR after Aza-C treatment; type: cell-based, human; settings: 5 μmol/L Aza-C for 4 days, vs control
From the text: (§1) FIGS. 2A-2C show promoter DNA CpG island hypermethylation contributes to Wnt5a downregulation in human EOC cells. […] Locations of exon 1 (open rectangle), CpG sites (vertical lines) and coding exons (filled rectangle), and the transcription start site (curved arrow) are indicated. Flat arrows indicate the positions of primers used for PCR amplification, and the size of PCR product is also indicated. […] Mean of 3 independent experiments with SD.
(§2) RT-PCR, qRT-PCR and immunoblotting. RNA from cultured primary HOSE or human EOC cells was isolated using Trizol (Invitrogen) according to manufacture's instruction. For qRT-PCR, Trizol®—(Molecular Research Center, Inc., Cincinnati, Ohio) isolated RNA was further purified using a RNeasy® mini kit (Qiagen GmbH, Germany). The Wnt5a primers used for qRT-PCR were purchased from Applied Biosystems. Housekeeping β-2-microglobulin or β-actin mRNA expression was used to normalize the Wnt5a mRNA expression. Soluble β-catenin was extracted using a buffer that consisting of 10 mM pH 7.5 Tris-HCl, 0.05% NP-40, 10 mM NaCl, 3 mM MgCl2, 1 mM EDTA and proteinase inhibitors (Roche). The following antibodies were used for immunoblotting: goat anti-Wnt5a (R&D systems), mouse anti-GAPDH (Millipore/Chemicon), mouse anti-β-catenin (BD Bioscience), anti-p53, mouse anti-Rb and mouse anti-β-actin (Sigma Chemical Co.), and rabbit anti-pRBpS780 (Cell Signaling).

[1] = tested on: Wnt5a protein in PEO1 cells; assay: Wnt5a protein expression by immunoblotting after Aza-C treatment; type: cell-based, human; settings: 5 μmol/L Aza-C for 4 days, vs control
From the text: as §1, §2

Structure (SMILES): Nc1ncn([C@@H]2O[C@H](CO)[C@@H](O)[C@H]2O)c(=O)n1 [Aza-C, 5-Aza-cytadine]
- levels of Wnt5a mRNA (Wnt5a mRNA in PEO1 cells): significant increase
- levels of Wnt5a protein [1]: significant increase
